The target of this test is TNF-α (Homo sapiens, UniProt P01375). Kind of test: TNF-α Induced HEK Blue Cellular Assay. To be noted: HEK Blue TNFα reporter cells, TNF-α 100 pg/ml, 24 hrs at 37° C., secreted alkaline phosphatase (QUANTI-Blue, 620 nm). The class given is cell-based. The procedure:
TNF-α Induced HEK Bluet Cellular Assay
Test articles were diluted in DMSO and serially diluted into 384 well assay plate (Corning 3765), at final concentrations ranging from […] to 0.5 nM. HEK Blue™ TNFα reporter cells were added at a final density of 10,000 cell per well in assay media [DMEM (Gibco, cat #21063-029), 10% fetal bovine serum (ExcelBio, cat #FND500), 1% Penicillin-Streptomycin (Solarbio, cat #P1400-100]. TNF-α (R&D 210-TA-020/CF) was then added to the assay plate at a final concentration of 100 pg/ml. This plate was then incubated for 24 hrs at 37° C. and 5% CO2. Secreted alkaline phosphatase expression was then measured using QUANTI-Blue™ (Invivogen), according to manufacturer instructions and read on an Envision microplate reader at 620 nm.
Inhibition data for test compound over a range of concentration was plotted as percentage inhibition of the test compound (100%=maximum inhibition). IC50 values were determined after correcting for background [(sample read-mean of low control)/(mean of high control-mean of low control)] where by the low control is DMSO without stimulation and high control is DMSO with stimulation. The IC50 is defined as the concentration of test compound which produces 50% inhibition and was quantified using the 4 parameter logistic equation to fit the data.

25 compounds from patent US12338262B2 (Forward Therapeutics, Inc., priority 2022, dated 2025) can be followed below.

Sequence of TNF-α (P01375 77-233 limits assumed): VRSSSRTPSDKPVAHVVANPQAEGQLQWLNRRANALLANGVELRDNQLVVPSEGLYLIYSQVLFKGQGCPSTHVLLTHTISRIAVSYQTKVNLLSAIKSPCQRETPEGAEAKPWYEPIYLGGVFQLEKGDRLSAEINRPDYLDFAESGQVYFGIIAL

The term IC50 denotes the point on the concentration scale where inhibition reaches its midpoint. Read a low IC50 as greater potency. Regarding `COP(=O)(O)c1ccc(-c2nc3c(N[C@H](C)c4cc(C#N)ccc4F)c(Cl)c(C)nc3cc2F)cn1` [Example 21, ammonium methyl 5-(7-chloro-8-{[(1R)-1-(5-cyano-2-fluorophenyl)ethyl]amino}-3-fluoro-6-methyl-1,5-naphthyridin-2-yl)pyridin-2-ylphosphonate], the IC50 is no more than 1000 nM. The value for `CC[C@@H](Nc1c(Cl)c(C)nc2cc(F)c(-c3ccc(P(C)(C)=O)nc3)nc12)c1ccccc1F` [Example 22, 3-chloro-6-[6-(dimethylphosphoryl)pyridin-3-yl]-7-fluoro-N-[(1R)-1-(2-fluorophenyl)propyl]-2-methyl-1,5-naphthyridin-4-amine] was no more than 100 nM; that for `CC[C@H](Nc1c(Cl)c(C)nc2cc(F)c(-c3ccc(P(C)(C)=O)nc3)nc12)c1ccccc1F` [Example 23, 3-chloro-6-[6-(dimethylphosphoryl)pyridin-3-yl]-7-fluoro-N-[(1S)-1-(2-fluorophenyl)propyl]-2-methyl-1,5-naphthyridin-4-amine] was no more than 100 nM; that for `CC[C@@H](Nc1c(Cl)c(C)nc2cc(F)c(-c3ccc(P(C)(C)=O)c(F)c3)nc12)c1ccccc1F` [Example 24, 3-chloro-6-[4-(dimethylphosphoryl)-3-fluorophenyl]-7-fluoro-N-[(1R)-1-(2-fluorophenyl)propyl]-2-methyl-1,5-naphthyridin-4-amine] was no more than 1000 nM.

Take `Cc1nc2cc(F)c(-c3ccc(P(C)(C)=O)nc3)nc2c(N[C@H](c2ccccc2F)C(F)F)c1Cl` [Example 26, (R)-(5-(7-chloro-8-((2,2-difluoro-1-(2-fluorophenyl)ethyl)amino)-3-fluoro-6-methyl-1,5-naphthyridin-2-yl)pyridin-2-yl)dimethylphosphine oxide]: the IC50 fell in the range of 1000 to 10000 nM. The value for `Cc1nc2cc(F)c(-c3ccc(P4(=O)CCCC4)nc3)nc2c(N[C@H](C)c2cc(C#N)ccc2F)c1Cl` [Example 27, 3-[(1R)-1-({3-chloro-7-fluoro-2-methyl-6-[6-(1-oxo-1lambda5-phospholan-1-yl)pyridin-3-yl]-1,5-naphthyridin-4-yl}amino)ethyl]-4-fluorobenzonitrile] was no more than 100 nM. `CCP(=O)(CC)c1ncc(-c2nc3c(N[C@H](C)c4cc(C#N)ccc4F)c(Cl)c(C)nc3cc2F)cn1` [Example 28, 3-[(1R)-1-({3-chloro-6-[2-(diethylphosphoryl)pyrimidin-5-yl]-7-fluoro-2-methyl-1,5-naphthyridin-4-yl}amino)ethyl]-4-fluorobenzonitrile] registered an IC50 of no more than 100 nM. The value for `Cc1nc2cc(F)c(-c3cnc(P(C)(C)=O)nc3)nc2c(NC(c2ccccc2F)C(F)F)c1Cl` (stereo not shown) [Example 29, 3-chloro-N-[2,2-difluoro-1-(2-fluorophenyl)ethyl]-6-[2-(dimethylphosphoryl)pyrimidin-5-yl]-7-fluoro-2-methyl-1,5-naphthyridin-4-amine] was no more than 1000 nM; that for `CC[C@H](Nc1c(Cl)c(C)nc2cc(F)c(-c3cnc(P(C)(C)=O)nc3)nc12)c1cc(C#N)ccc1F` [Example 30, 3-[(1S)-1-({3-chloro-6-[2-(dimethylphosphoryl)pyrimidin-5-yl]-7-fluoro-2-methyl-1,5-naphthyridin-4-yl}amino)propyl]-4-fluorobenzonitrile] was no more than 100 nM; that for `Cc1nc2cc(F)c(N3CCC(P(C)(C)=O)CC3)nc2c(N[C@H](C)c2cc(C#N)ccc2F)c1Cl` [Example 31, 3-[(1R)-1-({3-chloro-6-[4-(dimethylphosphoryl)piperidin-1-yl]-7-fluoro-2-methyl-1,5-naphthyridin-4-yl}amino)ethyl]-4-fluorobenzonitrile] was no more than 100 nM. Compound `CCOP(=O)(OCC)c1ccc(-c2nc3c(N[C@H](C)c4cc(C#N)ccc4F)c(Cl)c(C)nc3cc2F)cn1` [Example 32, diethyl 5-(7-chloro-8-{[(1R)-1-(5-cyano-2-fluorophenyl)ethyl]amino}-3-fluoro-6-methyl-1,5-naphthyridin-2-yl)pyridin-2-ylphosphonate] came in with an IC50 of no more than 100 nM. The value for `Cc1nc2cc(F)c(-c3ccc(OCP(C)(C)=O)nc3)nc2c(N[C@H](C)c2cc(C#N)ccc2F)c1Cl` [Example 33, 3-[(1R)-1-[(3-chloro-6-{6-[(dimethylphosphoryl)methoxy]pyridin-3-yl}-7-fluoro-2-methyl-1,5-naphthyridin-4-yl)amino]ethyl]-4-fluorobenzonitrile] was no more than 100 nM; that for `Cc1nc2cc(F)c(-c3ccc(P(C)(C)=O)nc3)nc2c(N[C@@H](c2cc(C#N)ccc2F)C(F)F)c1Cl` [Example 34, (S)-3-(1-((3-chloro-6-(6-(dimethylphosphoryl)pyridin-3-yl)-7-fluoro-2-methyl-1,5-naphthyridin-4-yl)amino)-2,2-difluoroethyl)-4-fluorobenzonitrile] was no more than 100 nM. For `Cc1nc2cc(F)c(-c3ccc(P(C)(C)=O)nc3)nc2c(N[C@H](c2cc(C#N)ccc2F)C(F)F)c1Cl` [Example 35, (R)-3-(1-((3-chloro-6-(6-(dimethylphosphoryl)pyridin-3-yl)-7-fluoro-2-methyl-1,5-naphthyridin-4-yl)amino)-2,2-difluoroethyl)-4-fluorobenzonitrile] the value was no more than 1000 nM. The value for `Cc1nc2cc(F)c(-c3cnc(P(C)(C)=O)nc3)nc2c(N[C@@H](c2cc(C#N)ccc2F)C(F)F)c1Cl` [Example 36, (S)-3-(1-((3-chloro-6-(2-(dimethylphosphoryl)pyrimidin-5-yl)-7-fluoro-2-methyl-1,5-naphthyridin-4-yl)amino)-2,2-difluoroethyl)-4-fluorobenzonitrile] was no more than 1000 nM. For `Cc1nc2cc(F)c(-c3ccc(P(=O)(O)O)nc3)nc2c(N[C@H](C)c2cc(C#N)ccc2F)c1Cl` [Example 37, diammonium 5-(7-chloro-8-{[(1R)-1-(5-cyano-2-fluorophenyl)ethyl]amino}-3-fluoro-6-methyl-1,5-naphthyridin-2-yl)pyridin-2-ylphosphonate], the half-maximal inhibitory concentration (IC50) is 10000 to 30000 nM. The value for `Cc1nc2cc(F)c(-c3cnc(P(C)(C)=O)nc3)nc2c(N[C@H](c2cc(C#N)ccc2F)C(F)F)c1Cl` [Example 38, (R)-3-(1-((3-chloro-6-(2-(dimethylphosphoryl)pyrimidin-5-yl)-7-fluoro-2-methyl-1,5-naphthyridin-4-yl)amino)-2,2-difluoroethyl)-4-fluorobenzonitrile] was no more than 1000 nM; that for `Cc1nc2cc(F)c(-c3ccc(CP(C)(C)=O)nc3)nc2c(N[C@H](C)c2cc(C#N)ccc2F)c1Cl` [Example 39, (R)-3-(1-((3-chloro-6-(6-((dimethylphosphoryl)methyl)pyridin-3-yl)-7-fluoro-2-methyl-1,5-naphthyridin-4-yl)amino)ethyl)-4-fluorobenzonitrile] was no more than 1000 nM; that for `Cc1nc2ccc(-c3ccc(P(C)(C)=O)nc3)nc2c(N[C@H](C)c2cc(C#N)ccc2F)c1Cl` [Example 40, 3-[(1R)-1-({3-chloro-6-[6-(dimethylphosphoryl)pyridin-3-yl]-2-methyl-1,5-naphthyridin-4-yl}amino)ethyl]-4-fluorobenzonitrile] was no more than 100 nM.

Turning to `Cc1nc2ccc(-c3cnc(P(C)(C)=O)nc3)nc2c(N[C@H](C)c2cc(C#N)ccc2F)c1Cl` [Example 41, 3-[(1R)-1-({3-chloro-6-[2-(dimethylphosphoryl)pyrimidin-5-yl]-2-methyl-1,5-naphthyridin-4-yl}amino)ethyl]-4-fluorobenzonitrile], the IC50 is no more than 1000 nM. `CCP(=O)(CC)c1ccc(-c2nc3c(N[C@H](C)c4cc(C#N)ccc4F)c(Cl)c(C)nc3cc2F)cn1` [Example 42, 3-[(1R)-1-({3-chloro-6-[6-(diethylphosphoryl)pyridin-3-yl]-7-fluoro-2-methyl-1,5-naphthyridin-4-yl}amino)ethyl]-4-fluorobenzonitrile]: the IC50 was no more than 100 nM. For `Cc1nc2cc(F)c(-c3ccc(P(C)(C)=O)nc3)nc2c(N[C@H](C)c2cccc(C#N)c2)c1Cl` [Example 43, 3-[(1R)-1-({3-chloro-6-[6-(dimethylphosphoryl)pyridin-3-yl]-7-fluoro-2-methyl-1,5-naphthyridin-4-yl}amino)ethyl]benzonitrile] the value was no more than 100 nM; for `CC[C@H](Nc1c(Cl)c(C)nc2cc(F)c(-c3ccc(P(C)(C)=O)nc3)nc12)c1cc(C#N)ccc1F` [Example 44, 3-[(1S)-1-({3-chloro-6-[6-(dimethylphosphoryl)pyridin-3-yl]-7-fluoro-2-methyl-1,5-naphthyridin-4-yl}amino)propyl]-4-fluorobenzonitrile], no more than 100 nM; for `Cc1nc2cc(F)c(-c3ccc(P(C)(C)=O)nc3)nc2c(N[C@@H](C)c2cccc(F)c2F)c1Cl` [Example 45, 3-chloro-N-[(1S)-1-(2,3-difluorophenyl)ethyl]-6-[6-(dimethylphosphoryl)pyridin-3-yl]-7-fluoro-2-methyl-1,5-naphthyridin-4-amine], no more than 100 nM.

Compound `Cc1nc2cc(F)c(-c3cnc(P(C)(C)=O)nc3)nc2c(N[C@H](C)c2cccc(C#N)c2)c1Cl` [Example 46, 3-[(1R)-1-({3-chloro-6-[2-(dimethylphosphoryl)pyrimidin-5-yl]-7-fluoro-2-methyl-1,5-naphthyridin-4-yl}amino)ethyl]benzonitrile] returned an IC50 of no more than 100 nM.
